Where two headings read alike, the source gives them in different places.
How the values were obtained:
[1] = target: T1, Rat Striatal Nicotinic Receptors ([^3H]MLA binding sites; α7) (Rattus norvegicus, UniProt Q05941); test: Inhibition of [^3H]MLA (methyllycaconitine) binding
T1 construct: Whole brain, excluding cortex and cerebellum, was homogenized in 20 vol of ice-cold buffer; from tissue; host or cells: rat brain membranes (whole brain excluding cortex and cerebellum)
How it was run: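 Rat brain membranes were washed by repeated centrifugation at 25,000 g, with a 10 min incubation at 37° C. in between. Samples of 250 μl, containing 100-140 μg of membrane protein, 3 nM [^3H]-methyllycaconitine and test analog in 50 mM Tris assay buffer, were incubated in 96-well plates for 60 min at room temperature. Nonspecific binding was defined with 10 μM S-nicotine. Bound radioactivity was collected on polyethylenimine-soaked GF/B filter plates and counted on a TopCount.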

[2] = tested on: nicotinic receptors mediating S-nicotine-evoked [^3H]DA release in rat striatal slices; test: Inhibition of S-nicotine-evoked [^3H]dopamine release from superfused rat striatal slices; format: cell-based; conditions: for inhibition at 0.1 µM: 1 h, read-out: [^3H]DA release, % inhibition of S-nicotine-evoked release
How it was run: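 Superfused rat striatal slices preloaded with 0.1 μM [3H]DA, in Krebs buffer with nomifensine and pargyline (10 μM each), 34 °C. Analogs (100 nM) given 60 min before 10 μM S-nicotine; tritium overflow by scintillation, inhibition expressed as percent of nicotine-evoked overflow without analog; full concentration-effect curves where […] given.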

[3] = target: T2, Rat Striatal Nicotinic Receptors ([^3H]NIC binding sites; α4β2) (Rattus norvegicus, UniProt P09483+P12390); test: Inhibition of [^3H]NIC binding
T2 construct: Whole brain, excluding cortex and cerebellum, was homogenized in 20 vol of ice-cold buffer; from tissue; host or cells: rat brain membranes (whole brain excluding cortex and cerebellum)
T2 sequence (P09483 31-630): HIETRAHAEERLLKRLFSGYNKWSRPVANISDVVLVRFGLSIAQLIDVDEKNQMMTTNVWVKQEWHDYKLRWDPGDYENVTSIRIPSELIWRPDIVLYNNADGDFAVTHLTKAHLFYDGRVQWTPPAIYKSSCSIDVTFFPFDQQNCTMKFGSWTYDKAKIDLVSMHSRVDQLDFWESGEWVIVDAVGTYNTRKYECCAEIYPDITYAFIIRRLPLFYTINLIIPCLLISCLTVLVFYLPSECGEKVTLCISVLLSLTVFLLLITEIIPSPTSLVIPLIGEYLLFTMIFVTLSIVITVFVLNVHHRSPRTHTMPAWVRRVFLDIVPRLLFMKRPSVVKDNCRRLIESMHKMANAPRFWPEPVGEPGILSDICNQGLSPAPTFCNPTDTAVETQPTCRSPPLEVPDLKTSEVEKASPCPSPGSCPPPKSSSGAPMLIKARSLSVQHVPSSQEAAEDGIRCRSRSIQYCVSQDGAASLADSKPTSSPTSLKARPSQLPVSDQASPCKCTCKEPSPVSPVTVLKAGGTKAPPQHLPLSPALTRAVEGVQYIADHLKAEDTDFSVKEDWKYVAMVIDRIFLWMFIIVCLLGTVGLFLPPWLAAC
T2 sequence (P12390 25-500): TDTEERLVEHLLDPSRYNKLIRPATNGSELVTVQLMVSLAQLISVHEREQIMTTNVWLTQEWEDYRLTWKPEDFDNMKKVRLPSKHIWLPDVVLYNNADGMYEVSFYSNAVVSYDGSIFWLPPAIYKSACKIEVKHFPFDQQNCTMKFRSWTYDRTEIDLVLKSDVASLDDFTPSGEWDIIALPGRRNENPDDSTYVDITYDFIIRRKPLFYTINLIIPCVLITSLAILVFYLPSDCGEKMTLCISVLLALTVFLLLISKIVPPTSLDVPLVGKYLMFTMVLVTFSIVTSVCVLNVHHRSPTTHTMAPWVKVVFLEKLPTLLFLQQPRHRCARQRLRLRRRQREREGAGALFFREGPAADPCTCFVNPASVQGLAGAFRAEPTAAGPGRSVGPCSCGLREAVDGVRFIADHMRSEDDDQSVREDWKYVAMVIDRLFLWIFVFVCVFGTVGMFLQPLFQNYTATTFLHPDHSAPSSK

[4] = full concentration effect, [^3H]MLA, nonspecific S-nicotine, rat brain membranes, read-out: [^3H]MLA binding, Ki
[5] = full concentration effect, 3 nM [^3H]NIC, nonspecific 10 μM cytisine, rat brain membranes, read-out: [^3H]NIC binding, Ki
[6] = 100 nM analog superfused 60 min before NIC 10 μM, rat striatal slices

T1 sequence (Q05941 23-502): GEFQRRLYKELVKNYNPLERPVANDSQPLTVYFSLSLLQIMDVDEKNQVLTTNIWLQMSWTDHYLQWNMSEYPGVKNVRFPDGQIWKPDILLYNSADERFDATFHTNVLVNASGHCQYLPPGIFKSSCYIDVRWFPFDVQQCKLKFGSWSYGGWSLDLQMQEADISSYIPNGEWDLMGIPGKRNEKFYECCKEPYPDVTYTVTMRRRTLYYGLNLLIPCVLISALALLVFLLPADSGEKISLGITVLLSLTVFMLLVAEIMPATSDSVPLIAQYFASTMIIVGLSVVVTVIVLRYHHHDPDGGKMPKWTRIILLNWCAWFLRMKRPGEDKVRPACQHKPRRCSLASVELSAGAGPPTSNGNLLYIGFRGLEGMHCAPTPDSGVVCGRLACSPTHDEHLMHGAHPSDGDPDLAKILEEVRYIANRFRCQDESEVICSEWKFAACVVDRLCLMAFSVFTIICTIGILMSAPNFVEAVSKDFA

Row | SMILES | Ki [1, 4] | Ki [3, 5] | inhibition at 0.1 µM [2, 6] | other results
1 | CN1CCC[C@H]1c1ccc[n+](CCCC/C=C\C=C/CCCC[n+]2cccc([C@@H]3CCCN3C)c2)c1 [Example 1, cis-cis-N,N′-(dodeca-5,7-diene-1,12-diyl)-bis-[3-(2′-S-1-methyl-pyrrolidin-2-yl)-pyridinium]dibromide] | > 100 µM | 1.09 µM |  | inhibition at 0.1 µM ([2]; Rattus norvegicus): 11%
2 | Cc1cccc[n+]1CCCC/C=C\C=C/CCCC[n+]1ccccc1C [Example 2, cis-cis-N,N′-(dodeca-5,7-diene-1,12-diyl)-bis-(2-methyl-pyridinium)dibromide] |  |  |  | inhibition at 0.1 µM ([1]; read-out: [^3H]MLA binding, % inhibition): 4.2%; inhibition at 0.1 µM ([2]; Rattus norvegicus): 0%; inhibition at 0.1 µM ([3]; 1 h, read-out: [^3H]NIC binding, % inhibition): 11%
3 | Cc1ccc[n+](CCCC/C=C\C=C/CCCC[n+]2cccc(C)c2)c1 [Example 3, cis-cis-N,N′-(dodeca-5,7-diene-1,12-diyl)-bis-(3-methyl-pyridinium)dibromide] | > 100 µM | > 100 µM | 31% | 
4 | Cc1cc[n+](CCCC/C=C\C=C/CCCC[n+]2ccc(C)cc2)cc1 [Example 4, cis-cis-N,N′-(dodeca-5,7-diene-1,12-diyl)-bis-(4-methyl-pyridinium)dibromide] |  | > 100 µM | 58% | Ki [1]: > 100 µM
5 | CN1CCC[C@@H]1c1ccc[n+](CCCCc2ccc(CCCC[n+]3cccc([C@H]4CCCN4C)c3)cc2)c1 [Example 10, N,N′-[1,4-phenylenedi-(4-butanyl)]-bis-[3-(2′-S-1-methyl-pyrrolidin-2-yl)-pyridinium]dibromide] | > 100 µM | 0.63 µM | 17% | 
6 | Cc1cccc[n+]1CCCCc1ccc(CCCC[n+]2ccccc2C)cc1 [Example 11, N,N′-[1,4-phenylenedi-(4-butanyl)]-bis-(2-methylpyridinium)dibromide] | > 100 µM | 5.94 µM | 37% | 
7 | Cc1ccc[n+](CCCCc2ccc(CCCC[n+]3cccc(C)c3)cc2)c1 [Example 12, N,N′-[1,4-phenylenedi-(4-butanyl)]-bis-(3-methylpyridinium)dibromide] | > 100 µM | > 100 µM | 44% | 
8 | Cc1cc[n+](CCCCc2ccc(CCCC[n+]3ccc(C)cc3)cc2)cc1 [Example 13, N,N′-[1,4-phenylenedi-(4-butanyl)]-bis-(4-methylpyridinium)dibromide] | > 100 µM | > 100 µM | 32% | 
9 | Cc1cccc[n+]1CCCCC#CC#CCCCC[n+]1ccccc1C [Example 91, N,N′-(5,7-dodecadiyn-1,12-diyl)-bis-(2-methylpyridinium)dichloride] | 23.9 µM | 4.4 µM | 6% | 
10 | Cc1ccc[n+](CCCCC#CC#CCCCC[n+]2cccc(C)c2)c1 [Example 92, N,N′-(5,7-dodecadiyn-1,12-diyl)-bis-(3-methylpyridinium)dichloride] |  |  | 18% | Ki [1]: > 100 µM; Ki [3]: 6.36 µM
11 | Cc1cc[n+](CCCCC#CC#CCCCC[n+]2ccc(C)cc2)cc1 [Example 93, N,N′-(5,7-dodecadiyn-1,12-diyl)-bis-(4-methylpyridinium)dichloride] | 5.11 µM | 8.93 µM | 19% | 
12 | Cc1cc[n+](CCCCC#CC#CCCCC[n+]2ccc(C)c(C)c2)cc1C [Example 94, N,N′-(5,7-dodecadiyn-1,12-diyl)-bis-(3,4-dimethylpyridinium)dichloride] | 24.1 µM | 8.6 µM | 21% | 
13 | Cc1cc(C)c[n+](CCCCC#CC#CCCCC[n+]2cc(C)cc(C)c2)c1 [Example 95, N,N′-(5,7-dodecadiyn-1,12-diyl)-bis-(3,5-dimethylpyridinium)dichloride] |  |  |  | Ki [1]: 25.6 µM; IC50 ([2]; NIC 10 μM, rat striatal slices): > 1 µM; Ki [3]: > 100 µM
14 | C(C#CCCCC[n+]1ccc2c(c1)CCCC2)#CCCCC[n+]1ccc2c(c1)CCCC2 [Example 96, N,N′-(5,7-dodecadiyn-1,12-diyl)-bis-(5,6,7,8-tetrahydroisoquinolinium)dichloride] | 5.36 µM | 11.3 µM |  | 
